# Test results as given in ChEMBL document CHEMBL5728238, “Inhibiting agents for Bruton's tyrosine kinase” (2021).
# Molecular target: Tyrosine-protein kinase BTK (Homo sapiens, UniProt Q06187)
# Assay: In Vitro Kinase Assay: The purpose of the BTK in vitro assay is to determine compound potency against BTK through the measurement of IC50. Compound inhibition is measured after monitoring the amount of phosphorylation of a fluorescein-labeled polyGAT peptide (Invitrogen PV3611) in the presence of active BTK enzyme (Upstate 14-552), ATP, and inhibitor. The BTK kinase reaction was done in a black 96 well plate (costar 3694). For a typical assay, a […] aliquot of a ATP/peptide master mix (final concentration; […], polyGAT 100 nM) in kinase buffer (10 mM Tris-HCl pH 7.5, 10 mM MgCl2, 200 μM Na3PO4, 5 mM DTT, 0.01% Triton X-100, and 0.2 mg/ml casein) is added to each well. Next, […] of a 4-fold, 40× compound titration in 100% DMSO solvent is added, followed by adding 15 μL of BTK enzyme mix in 1× kinase buffer (with a final concentration of 0.25 nM). The assay is incubated for 30 minutes before being stopped with 28 μL of a 50 mM EDTA solution. Aliquots (5 μL) of the kinase reaction are transferred to a low volume white 384 well plate (Corning 3674), and 5 μL of a 2× detection buffer (Invitrogen PV3574, with 4 nM Tb-PY20 antibody, Invitrogen PV3552) is added. The plate is covered and incubated for 45 minutes at room temperature. Time resolved fluorescence (TRF) on Molecular Devices M5 (332 nm excitation; 488 nm emission; 518 nm fluorescein emission) is measured. […]
# Chain of Tyrosine-protein kinase BTK (Q06187 whole entry): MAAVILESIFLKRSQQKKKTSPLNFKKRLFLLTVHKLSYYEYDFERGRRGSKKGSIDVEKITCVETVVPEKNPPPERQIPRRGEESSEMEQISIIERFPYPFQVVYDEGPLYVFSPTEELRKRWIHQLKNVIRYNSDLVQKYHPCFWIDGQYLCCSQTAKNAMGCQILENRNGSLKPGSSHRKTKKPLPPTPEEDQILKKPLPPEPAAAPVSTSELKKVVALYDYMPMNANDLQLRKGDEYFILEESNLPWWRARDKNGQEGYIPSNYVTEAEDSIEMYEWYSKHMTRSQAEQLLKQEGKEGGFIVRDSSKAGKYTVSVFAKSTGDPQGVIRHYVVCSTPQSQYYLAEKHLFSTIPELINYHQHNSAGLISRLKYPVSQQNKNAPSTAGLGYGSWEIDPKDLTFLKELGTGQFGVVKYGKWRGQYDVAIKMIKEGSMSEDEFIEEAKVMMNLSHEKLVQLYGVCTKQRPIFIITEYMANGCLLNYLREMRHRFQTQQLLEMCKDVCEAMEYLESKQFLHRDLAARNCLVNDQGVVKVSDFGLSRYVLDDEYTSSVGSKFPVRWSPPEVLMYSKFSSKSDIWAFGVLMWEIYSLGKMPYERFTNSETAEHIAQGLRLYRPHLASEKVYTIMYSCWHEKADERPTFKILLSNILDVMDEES
row,SMILES,IC50 [nM]
1,Cc1cc(-c2ncnc(Nc3cnn(C)c3)n2)ccc1CNC(=O)c1noc(C2[C@@H](C)[C@H]2C)n1 (some centres not stated),< 1
2,Cc1cc(-c2ncnc(Nc3cnn(C)c3)n2)ccc1CNC(=O)c1cc(C(C)(C)C)on1,< 1
